Experimental data as given in patent US20240116985A1, “STAPLED PEPTIDES AND METHODS THEREOF” (priority 2020, published 2024).

What follows are molecules tested against T1, full-length beta-Catenin (Uniprot ID P35222) (Homo sapiens, UniProt P35222) (assay: Fluorescence polarization IC50 (beta-catenin / 5FAM-TCF4 10-53 competition)). Details: fluorescence polarization; read-out: beta-Catenin FP IC50.
T1 construct: 10 nM full-length beta-Catenin (Uniprot ID P35222)
T1 sequence (P35222 1-781): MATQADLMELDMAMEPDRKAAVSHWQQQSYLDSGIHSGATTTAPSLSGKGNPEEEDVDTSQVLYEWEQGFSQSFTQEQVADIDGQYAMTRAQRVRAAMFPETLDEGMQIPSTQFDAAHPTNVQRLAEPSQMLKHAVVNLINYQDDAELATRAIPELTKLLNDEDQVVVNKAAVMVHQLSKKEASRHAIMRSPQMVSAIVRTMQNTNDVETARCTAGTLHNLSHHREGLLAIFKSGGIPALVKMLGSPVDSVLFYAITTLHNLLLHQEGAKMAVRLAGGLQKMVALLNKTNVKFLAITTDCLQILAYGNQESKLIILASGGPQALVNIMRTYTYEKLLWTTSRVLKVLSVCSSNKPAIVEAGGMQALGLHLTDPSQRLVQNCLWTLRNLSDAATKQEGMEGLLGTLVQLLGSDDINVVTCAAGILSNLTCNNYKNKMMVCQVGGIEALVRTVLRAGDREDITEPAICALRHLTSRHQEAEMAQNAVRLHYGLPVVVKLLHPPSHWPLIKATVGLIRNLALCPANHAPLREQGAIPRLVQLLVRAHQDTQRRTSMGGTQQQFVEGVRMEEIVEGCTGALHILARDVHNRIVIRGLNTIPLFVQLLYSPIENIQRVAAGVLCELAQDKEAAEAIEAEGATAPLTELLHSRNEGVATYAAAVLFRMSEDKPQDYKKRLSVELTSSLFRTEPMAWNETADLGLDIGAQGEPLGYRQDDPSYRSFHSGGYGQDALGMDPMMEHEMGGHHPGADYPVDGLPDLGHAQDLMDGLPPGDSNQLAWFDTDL
Assay type: binding

SMILES | IC50
CC(=O)N1CCC[C@]12CC=CCCCC1(CCCC=CCCCOC(=O)N3CC[C@@](C(=O)N[C@@H](Cc4ccsc4)C(=O)N[C@@H](Cc4csc5ccccc45)C(=O)N[C@@H](CCC(N)=O)C(N)=O)(C3)NC(=O)[C@H](CC(C)C)NC(=O)[C@H](Cc3cccc(C(=O)O)c3)NC(=O)[C@H](C)NC(=O)[C@H](C)NC(=O)[C@H](Cc3c[nH]c4ccccc34)NC(=O)[C@H](CC(=O)O)NC1=O)NC(=O)[C@H](CC(C)(C)C)NC(=O)[C@H](CC(=O)O)NC2=O (stereo partly drawn) [I-2129, Ac-PL3-Asp-Npg-B5-Asp-Trp-Ala-Ala-3COOHF-Leu-PyrS2-3Thi-BztA-Gln-NH2] | 105 nM
CC(=O)N1CCC[C@]12CC=CCCCC1(CCCC=CCCCOC(=O)N3CC[C@@](C(=O)N[C@@H](Cc4ccsc4)C(=O)N[C@@H](Cc4csc5ccccc45)C(=O)N[C@@H](CCC(N)=O)C(N)=O)(C3)NC(=O)[C@H](CC(N)=O)NC(=O)[C@H](Cc3ccccc3)NC(=O)[C@H](C)NC(=O)[C@H](C)NC(=O)[C@H]([C@@H](C)O)NC(=O)[C@H](CC(N)=O)NC1=O)NC(=O)[C@H](CC(C)(C)C)NC(=O)[C@H](CN(CC(=O)O)CC(F)(F)F)NC2=O (stereo partly drawn) [I-2130, Ac-PL3-TfeGA-Npg-B5-Asn-Thr-Ala-Ala-Phe-Asn-PyrS2-3Thi-BztA-Gln-NH2] | 4920 nM
CC(=O)N1CCC[C@]12CC=CCCCC1(CCCC=CCCCOC(=O)N3CC[C@@](C(=O)N[C@@H](Cc4ccsc4)C(=O)N[C@@H](Cc4csc5ccccc45)C(=O)N[C@@H](CCC(N)=O)C(N)=O)(C3)NC(=O)[C@H](CC(N)=O)NC(=O)[C@H](Cc3ccccc3)NC(=O)[C@H](C)NC(=O)[C@H](C)NC(=O)[C@H]([C@@H](C)O)NC(=O)[C@H](CC(N)=O)NC1=O)NC(=O)[C@H](CC(C)(C)C)NC(=O)[C@H](CN(CC(=O)O)CC(F)(F)F)NC2=O (stereo partly drawn) [I-2131, Ac-PL3-TfeGA-Npg-B5-Asn-Thr-Ala-Ala-Phe-Asn-PyrS2-3Thi-BztA-Gln-NH2] | 3220 nM
CC(=O)N1CCC[C@]12CC=CCCCC1(CCCC=CCCCOC(=O)N3CC[C@@](C(=O)N[C@@H](Cc4ccsc4)C(=O)N[C@@H](Cc4csc5ccccc45)C(=O)N[C@@H](CCC(N)=O)C(N)=O)(C3)NC(=O)[C@H](CC(N)=O)NC(=O)[C@H](Cc3ccccc3)NC(=O)[C@H](C)NC(=O)[C@H](C)NC(=O)[C@H]([C@@H](C)O)NC(=O)[C@H](CC(N)=O)NC1=O)NC(=O)[C@H](CC(C)(C)C)NC(=O)[C@H](CCCC(=O)O)NC2=O (stereo partly drawn) [I-2133, Ac-PL3-Aad-Npg-B5-Asn-Thr-Ala-Ala-Phe-Asn-PyrS2-3Thi-BztA-Gln-NH2] | 8750 nM
CC(=O)N1CCC[C@]12CC=CCCCC1(CCCC=CCCCOC(=O)N3CC[C@@](C(=O)N[C@@H](Cc4ccsc4)C(=O)N[C@@H](Cc4csc5ccccc45)C(=O)N[C@@H](CCC(N)=O)C(N)=O)(C3)NC(=O)[C@H](CC(N)=O)NC(=O)[C@H](Cc3ccccc3)NC(=O)[C@H](C)NC(=O)[C@H](C)NC(=O)[C@H]([C@@H](C)O)NC(=O)[C@H](CC(N)=O)NC1=O)NC(=O)[C@H](CC(C)(C)C)NC(=O)[C@H](Cc1cccc(C(=O)O)c1)NC2=O (stereo partly drawn) [I-2135, Ac-PL3-3COOHF-Npg-B5-Asn-Thr-Ala-Ala-Phe-Asn-PyrS2-3Thi-BztA-Gln-NH2] | 3410 nM
CC(=O)N1CCC[C@]12CC=CCCCC1(CCCC=CCCCOC(=O)N3CC[C@@](C(=O)N[C@@H](Cc4ccsc4)C(=O)N[C@@H](Cc4csc5ccccc45)C(=O)N[C@@H](Cc4c[nH]c5ccccc45)C(N)=O)(C3)NC(=O)[C@H](CC(N)=O)NC(=O)[C@H](Cc3ccccc3)NC(=O)[C@H](C)NC(=O)[C@H](C)NC(=O)[C@H]([C@@H](C)O)NC(=O)[C@H](CC(N)=O)NC1=O)NC(=O)[C@H](CC(C)(C)C)NC(=O)[C@H](CC(=O)O)NC2=O (stereo partly drawn) [I-2138, Ac-PL3-Asp-Npg-B5-Asn-Thr-Ala-Ala-Phe-Asn-PyrS2-3Thi-BztA-Trp-NH2] | 1010 nM
CC(=O)N1CCC[C@]12CC=CCCCC1(CCCC=CCCCOC(=O)N3CC[C@@](C(=O)N[C@@H](Cc4ccsc4)C(=O)N[C@@H](Cc4csc5ccccc45)C(=O)N[C@@H](Cc4c[nH]c5ccccc45)C(N)=O)(C3)NC(=O)[C@H](CC(N)=O)NC(=O)[C@H](Cc3ccccc3)NC(=O)[C@H](C)NC(=O)[C@H](C)NC(=O)[C@H]([C@@H](C)O)NC(=O)[C@H](CC(N)=O)NC1=O)NC(=O)[C@H](CC(C)(C)C)NC(=O)[C@H](CC(=O)O)NC2=O (stereo partly drawn) [I-2139, Ac-PL3-Asp-Npg-B5-Asn-Thr-Ala-Ala-Phe-Asn-PyrS2-3Thi-BztA-Trp-NH2] | 970 nM
CC(=O)N1CCC[C@]12CC=CCCCC1(CCCC=CCCCOC(=O)N3CC[C@@](C(=O)N[C@@H](Cc4ccsc4)C(=O)N[C@@H](Cc4csc5ccccc45)C(=O)N[C@@H](Cc4c[nH]cn4)C(N)=O)(C3)NC(=O)[C@H](CC(N)=O)NC(=O)[C@H](Cc3ccccc3)NC(=O)[C@H](C)NC(=O)[C@H](C)NC(=O)[C@H]([C@@H](C)O)NC(=O)[C@H](CC(N)=O)NC1=O)NC(=O)[C@H](CC(C)(C)C)NC(=O)[C@H](CC(=O)O)NC2=O (stereo partly drawn) [I-2140, Ac-PL3-Asp-Npg-B5-Asn-Thr-Ala-Ala-Phe-Asn-PyrS2-3Thi-BztA-His-NH2] | 233 nM
CC(=O)N1CCC[C@]12CC=CCCCC1(CCCC=CCCCOC(=O)N3CC[C@@](C(=O)N[C@@H](Cc4ccsc4)C(=O)N[C@@H](Cc4csc5ccccc45)C(=O)N[C@@H](Cc4c[nH]cn4)C(N)=O)(C3)NC(=O)[C@H](CC(N)=O)NC(=O)[C@H](Cc3ccccc3)NC(=O)[C@H](C)NC(=O)[C@H](C)NC(=O)[C@H]([C@@H](C)O)NC(=O)[C@H](CC(N)=O)NC1=O)NC(=O)[C@H](CC(C)(C)C)NC(=O)[C@H](CC(=O)O)NC2=O (stereo partly drawn) [I-2141, Ac-PL3-Asp-Npg-B5-Asn-Thr-Ala-Ala-Phe-Asn-PyrS2-3Thi-BztA-His-NH2] | 310 nM
CC(=O)N1CCC[C@]12CC=CCCCC1(CCCC=CCCCOC(=O)N3CC[C@@](C(=O)N[C@@H](Cc4ccsc4)C(=O)N[C@@H](Cc4csc5ccccc45)C(=O)N[C@@H](C)C(N)=O)(C3)NC(=O)[C@H](CC(N)=O)NC(=O)[C@H](Cc3ccccc3)NC(=O)[C@H](C)NC(=O)[C@H](C)NC(=O)[C@H]([C@@H](C)O)NC(=O)[C@H](CC(N)=O)NC1=O)NC(=O)[C@H](CC(C)(C)C)NC(=O)[C@H](CC(=O)O)NC2=O (stereo partly drawn) [I-2143, Ac-PL3-Asp-Npg-B5-Asn-Thr-Ala-Ala-Phe-Asn-PyrS2-3Thi-BztA-Ala-NH2] | 217 nM
CC(=O)N1CCC[C@]12CC=CCCCC1(CCCC=CCCCOC(=O)N3CC[C@@](C(=O)N[C@@H](Cc4ccsc4)C(=O)N[C@@H](Cc4csc5ccccc45)C(=O)N[C@@H](Cc4ccccc4)C(N)=O)(C3)NC(=O)[C@H]([C@@H](C)O)NC(=O)[C@H](Cc3ccccc3)NC(=O)[C@H](C)NC(=O)[C@H](C)NC(=O)[C@H]([C@@H](C)O)NC(=O)[C@H](CC(N)=O)NC1=O)NC(=O)[C@H](CC(C)(C)C)NC(=O)[C@H](CC(=O)O)NC2=O (stereo partly drawn) [I-2144, Ac-PL3-Asp-Npg-B5-Asn-Thr-Ala-Ala-Phe-Thr-PyrS2-3Thi-BztA-Phe-NH2] | 2020 nM
CC(=O)N1CCC[C@]12CC=CCCCC1(CCCC=CCCCOC(=O)N3CC[C@@](C(=O)N[C@@H](Cc4ccsc4)C(=O)N[C@@H](Cc4csc5ccccc45)C(=O)N[C@@H](Cc4ccccc4)C(N)=O)(C3)NC(=O)[C@H]([C@@H](C)O)NC(=O)[C@H](Cc3ccccc3)NC(=O)[C@H](C)NC(=O)[C@H](C)NC(=O)[C@H]([C@@H](C)O)NC(=O)[C@H](CC(N)=O)NC1=O)NC(=O)[C@H](CC(C)(C)C)NC(=O)[C@H](CC(=O)O)NC2=O (stereo partly drawn) [I-2145, Ac-PL3-Asp-Npg-B5-Asn-Thr-Ala-Ala-Phe-Thr-PyrS2-3Thi-BztA-Phe-NH2] | 2070 nM
CC(=O)N1CCC[C@]12CC=CCCCC1(CCCC=CCCCOC(=O)N3CC[C@@](C(=O)N[C@@H](Cc4ccsc4)C(=O)N[C@@H](Cc4csc5ccccc45)C(=O)N[C@@H](CCC(N)=O)C(N)=O)(C3)NC(=O)[C@H](Cc3c[nH]cn3)NC(=O)[C@H](Cc3ccccc3)NC(=O)[C@H](C)NC(=O)[C@H](C)NC(=O)[C@H]([C@@H](C)O)NC(=O)[C@H](CC(N)=O)NC1=O)NC(=O)[C@H](CC(C)(C)C)NC(=O)[C@H](CC(=O)O)NC2=O (stereo partly drawn) [I-2146, Ac-PL3-Asp-Npg-B5-Asn-Thr-Ala-Ala-Phe-His-PyrS2-3Thi-BztA-Gln-NH2] | 248 nM
CC(=O)N1CCC[C@]12CC=CCCCC1(CCCC=CCCCOC(=O)N3CC[C@@](C(=O)N[C@@H](Cc4ccsc4)C(=O)N[C@@H](Cc4csc5ccccc45)C(=O)N[C@@H](CCC(N)=O)C(N)=O)(C3)NC(=O)[C@H](Cc3c[nH]cn3)NC(=O)[C@H](Cc3ccccc3)NC(=O)[C@H](C)NC(=O)[C@H](C)NC(=O)[C@H]([C@@H](C)O)NC(=O)[C@H](CC(N)=O)NC1=O)NC(=O)[C@H](CC(C)(C)C)NC(=O)[C@H](CC(=O)O)NC2=O (stereo partly drawn) [I-2147, Ac-PL3-Asp-Npg-B5-Asn-Thr-Ala-Ala-Phe-His-PyrS2-3Thi-BztA-Gln-NH2] | 390 nM
CC(=O)N1CCC[C@]12CC=CCCCC1(CCCC=CCCCOC(=O)N3CC[C@@](C(=O)N[C@@H](Cc4ccsc4)C(=O)N[C@@H](Cc4csc5ccccc45)C(=O)N[C@@H](CCC(N)=O)C(N)=O)(C3)NC(=O)[C@H](CC(N)=O)NC(=O)[C@H](Cc3ccccc3)NC(=O)[C@H](C)NC(=O)[C@H](C)NC(=O)[C@H]([C@@H](C)O)NC(=O)[C@H]([C@@H](C)O)NC1=O)NC(=O)[C@H](CC(C)(C)C)NC(=O)[C@H](CC(=O)O)NC2=O (stereo partly drawn) [I-2149, Ac-PL3-Asp-Npg-B5-Thr-Thr-Ala-Ala-Phe-Asn-PyrS2-3Thi-BztA-Gln-NH2] | 7180 nM
